Data as given in patent US9682954B2, “Phenanthridine derivatives, preparation methods and uses thereof” (Kunming Institute of Botany, The Chinese Academy of Sciences, priority 2013, dated 2017).

Columns and labels:
Wnt signaling pathway = assay: Activity assay of the reporter gene (Wnt signaling pathway activation, Wnt3a conditioned medium); type: cell-based
Description: After 6 hours, the cells are collected and activities of the report genes are determined.
Activity Assay of the Reporter Gene
HEK293T, HCT116, SW480 or NIH3T3 cells used for activity assay of the reporter gene were inoculated into 24-wells plates respectively 24 hours before transfection then transfected following the above mentioned reference method. The amount of the plasmids used for Transfection was: 20 ng of TOPFlash, NFAT-Luc, or SRF-Luc, and 25 ng of EGFP-C1 (HEK293T); 25 ng of LEF-Luc, 75 ng of LEF1, and 25 ng of EGFP-C1 (NIH3T3); 100 ng of TOPFlash or Fopfllash and 100 ng of EGFP-C1 (HCT116 and SW480). The cells were transfected with other plasmids following experimental requirements, LacZs were added to meet a total content of 250 ng (in RNAi and plasmid co-transfection experiments, 1 μl of siRNA was added when every 100 ng/well of the plasmid was transfected). Wnt3a conditioned medium was added 18 hours after transfection to stimulate the cells for 6-8 hours, the cells were lysed using Boehringer Mannheim Luci-ferase Assay Kit (200 μl/well). Intensity of GFP proteins in cell lysates were determined as internal standards of expression quantity of the cells using fluorescence meter FL600 (BIO-TEK Inc. Winooski, Vt.), and then 20 μl of luciferase substrates were added. Luciferase activity was determined with Micro Lumate Plus (Perkin Elmer Inc. Wellesley, Mass.) luminometer. Finally, the luciferase activity was homogenized using activity of GFP.

Huh7.5 cells = assay: in vitro
Description: (§1) (1) Toxicity Experiment of the Compound on Huh7.5:
(§2) 100 μL of Huh7.5 cells (1×10^5/ml) was inoculated in 96-wells plates and incubated in an incubator at 37° C. under 5% of CO2 and saturated humidity for 24 hrs. Then different concentration of the compound of the present invention and positive control (VX-950, telaprevir) were added respectively and incubated for a further 72 hrs. 10 μL of MTT (5 mg/mL) was added per well and incubated for another 4 hrs. After the cells were lysed with DMSO, OD570-630 […] was determined on ELIASA. In comparison with OD of the control group, inhibitory rate of each concentration on cell toxicity was calculated, and half toxic concentration of the compound was calculated with Reed-Muench method.

HCV = assay: microbe, parasite or virus in culture; type: cell-based, Hepatitis C Virus (HCV); conditions: Huh7.5 cells infected with HCV, 72 hrs, intracellular HCV RNA by qRT-PCR, Reed-Muench method; read-out: EC50
Description: (2) Anti-HCV Activity of the Compound in Cells:
The total RNA was extracted from the cells. The intracellular content of HCV and RNA of internal control gene GAPDH were determined by real-time fluorescence qRT-PCR.

[1] = Toxicity experiment of the compound on Huh7.5 (MTT); conditions: human, CC50, Huh7.5 cells, 72 hrs, MTT, half toxic concentration by Reed-Muench method
Description: as §1, §2

Which results are given for `CCc1cccc2c1N(C)Cc1cc(OCc3cn(CCN)nn3)c(OCc3cn(CCN)nn3)cc1-2` [Compound 10q, 4-ethyl-5-methyl-8,9-bis[1-(2-amino-ethyl)-1H-[1,2,3]triazol-4-ylmethoxy]-5,6-dihydro-phenanthridine]?
activation of the reporter gene systems of classical Wnt signaling pathway (Wnt signaling pathway; in the way of depending on Wnt3a receptors): activate the reporter gene systems of classical Wnt signaling pathway; Concentration of compounds for doubly synergetic activating Wnt reporter gene (Wnt signaling pathway; reporter gene, with Wnt3a conditioned medium): 1.25 µM; melting point: 196 to 197 °C

For `C=Cc1cccc2c1N(C)Cc1cc(OCc3cccc(OC)c3OC)c(OCc3cccc(OC)c3OC)cc1-2` [Compound 11f, 4-ethenyl-5-methyl-8,9-di(2,3-dimethoxy)benzyloxy-5,6-dihydro-phenanthridine], which CC50 (Huh7.5 cells) is on record?
The CC50 was 32.9 ± 1.28 µM.

And the EC50 (HCV)?
The EC50 was 0.3 ± 0.01 µM.

With `C=Cc1cccc2c1N(C)Cc1cc(OCc3ccc(C#N)cc3)c(OCc3ccc(C#N)cc3)cc1-2` [Compound 11g, 4-ethenyl-5-methyl-8,9-di(4-cyano)benzyloxy-5,6-dihydro-phenanthridine] as the molecule, how does the CC50 (Huh7.5 cells) read?
The CC50 was 25.9 ± 0.82 µM.

What about the EC50 (HCV) of the same molecule?
Its EC50 is over 0.37 µM.

For `C=Cc1cccc2c1N(C)Cc1cc(OC(=O)CCCC)c(OC(=O)CCCC)cc1-2` [Compound 11k, 4-ethenyl-5-methyl-8,9-divaleryoxy-5,6-dihydro-phenanthridine], which CC50 (Huh7.5 cells) is on record?
Its CC50 is over 100 µM.

And the EC50 (HCV)?
The EC50 was 0.94 ± 0.02 µM.

With `C=Cc1cccc2c1N(C)Cc1cc(OC(=O)c3ccc(Br)cc3)c(OC(=O)c3ccc(Br)cc3)cc1-2` [Compound 11n, 4-ethenyl-5-methyl-8,9-di(4-bromo)benzoyloxy-5,6-dihydro-phenanthridine] as the molecule, how does the CC50 (Huh7.5 cells) read?
The CC50 was 82.6 ± 3.28 µM.

And the EC50 (HCV)?
Its EC50 is 4.58 ± 0.55 µM.

Which CC50 at 72 h [1] does the source give for `CCC[C@H](NC(=O)[C@@H]1[C@H]2CCC[C@H]2CN1C(=O)[C@@H](NC(=O)[C@@H](NC(=O)c1cnccn1)C1CCCCC1)C(C)(C)C)C(=O)C(=O)NC1CC1` [VX-950, telaprevir, reference compound] here?
The CC50 at 72 h was 39.5 ± 4.9 µM.

What about the CC50 (Huh7.5 cells; Huh7.5 cells, 72 hrs, MTT, half toxic concentration by Reed-Muench method) of the same molecule?
Its CC50 is 32.5 ± 0.58 µM.
